Measurements taken from BindingDB's records for doi:10.1021/jm801306g (University of Alberta, 2009).

Columns and labels:
Trypanothione reductase [1] = target: Trypanothione reductase (Trypanosoma brucei brucei, UniProt P39051); assay: TryR Enzyme Inhibition Assay
Protocol: (§1) Inhibition of TryR was carried out in 96-well plates using a Biotek Precision 2000 automated liquid handler. Reaction was initiated by addition of NADPH to the assay mixtures contained TryR , trypanothione disulfide substrate, and inhibitor (100 uM to 10 nM in 3-fold serial dilutions). […] Raw data was processed using Microsoft Excel. Grafit 5.0 (Erithacus software) was used to fit the data to a three-parameter equation to determine IC50 values. IC50 determinations were carried out in triplicate for each compound and the mean weighted to standard error calculated.

Trypanothione reductase [2] = target: Trypanothione reductase (Trypanosoma cruzi, UniProt P28593); assay: TryR Enzyme Inhibition Assay; settings: pH 7.5; 22 °C
Chain of Trypanothione reductase (Trypanosoma cruzi, UniProt P28593) (P28593 whole entry): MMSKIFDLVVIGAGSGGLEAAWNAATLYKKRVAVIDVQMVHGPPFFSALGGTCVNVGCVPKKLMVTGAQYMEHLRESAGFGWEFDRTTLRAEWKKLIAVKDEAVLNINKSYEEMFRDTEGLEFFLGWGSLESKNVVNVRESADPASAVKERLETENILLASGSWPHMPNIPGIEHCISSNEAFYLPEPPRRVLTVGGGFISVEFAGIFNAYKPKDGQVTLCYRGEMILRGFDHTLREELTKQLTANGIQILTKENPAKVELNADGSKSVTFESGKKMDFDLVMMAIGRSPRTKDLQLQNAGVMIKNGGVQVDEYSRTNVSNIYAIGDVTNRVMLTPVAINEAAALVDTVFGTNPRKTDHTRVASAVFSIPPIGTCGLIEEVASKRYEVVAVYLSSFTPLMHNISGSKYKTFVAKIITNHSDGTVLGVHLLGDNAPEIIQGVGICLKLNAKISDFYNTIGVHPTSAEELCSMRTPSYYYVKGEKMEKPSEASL
Protocol: as §1

Chain of Trypanothione reductase (Trypanosoma brucei brucei, UniProt P39051) (P39051 whole entry): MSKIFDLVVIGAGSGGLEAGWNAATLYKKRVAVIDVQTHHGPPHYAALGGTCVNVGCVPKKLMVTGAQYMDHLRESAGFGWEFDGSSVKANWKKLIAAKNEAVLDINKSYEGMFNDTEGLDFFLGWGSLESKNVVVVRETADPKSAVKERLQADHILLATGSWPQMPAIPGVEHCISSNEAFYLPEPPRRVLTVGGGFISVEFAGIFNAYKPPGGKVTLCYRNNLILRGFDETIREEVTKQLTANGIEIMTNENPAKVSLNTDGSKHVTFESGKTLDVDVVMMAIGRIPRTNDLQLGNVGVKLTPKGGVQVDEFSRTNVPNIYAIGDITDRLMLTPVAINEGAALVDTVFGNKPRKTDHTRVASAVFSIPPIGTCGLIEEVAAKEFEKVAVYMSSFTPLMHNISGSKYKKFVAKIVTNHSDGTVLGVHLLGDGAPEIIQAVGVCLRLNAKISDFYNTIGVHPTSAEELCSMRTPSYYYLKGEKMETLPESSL

**Q.** Which results are given for C[N+]1(Cc2ccccc2)CCC(NC=C2C(=O)NC(=O)N(C3CCCCC3)C2=O)CC1 (configuration not stated) [1-benzyl-4-[(E)-[(1-cyclohexyl-2,4,6-trioxo-1,3-diazinan-5-yl)methylidene]amino]-1-methylpiperidin-1-ium]?
**A.** IC50 (Trypanothione reductase [1]): > 100 µM; IC50 (Trypanothione reductase [2]): 45.2 µM
